Test results published in PubChem BioAssay (NCI).
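These data come from cells grown in 96-well plates and exposed to compound for 48 hours at five concentrations. At the GI50, growth is halved. The concentration for full growth arrest is given as TGI.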

Key:
Assay in all cases: NCI tumour cell line growth inhibition, 48 h
786-0 renal = system: 786-0 renal
HCT-15 colon = system: HCT-15 colon
HL-60(TB) leukemia = system: HL-60(TB) leukemia
MALME-3M melanoma = system: MALME-3M melanoma
NCI-H226 lung = system: NCI-H226 lung
SNB-19 CNS = system: SNB-19 CNS
UACC-62 melanoma = system: UACC-62 melanoma
DU-145 prostate = system: DU-145 prostate
OVCAR-5 ovarian = system: OVCAR-5 ovarian
T-47D breast = system: T-47D breast

| Structure (SMILES) | TGI (786-0 renal) | TGI (HCT-15 colon) | TGI (HL-60(TB) leukemia) | TGI (MALME-3M melanoma) | TGI (NCI-H226 lung) | TGI (SNB-19 CNS) | TGI (UACC-62 melanoma) | GI50 (786-0 renal) | GI50 (DU-145 prostate) | TGI (DU-145 prostate) | GI50 (HCT-15 colon) | GI50 (MALME-3M melanoma) | GI50 (NCI-H226 lung) | GI50 (OVCAR-5 ovarian) | TGI (OVCAR-5 ovarian) | GI50 (T-47D breast) | TGI (T-47D breast) | GI50 (UACC-62 melanoma) | GI50 (SNB-19 CNS) | GI50 (HL-60(TB) leukemia) |
| --- | --- | --- | --- | --- | --- | --- | --- | --- | --- | --- | --- | --- | --- | --- | --- | --- | --- | --- | --- | --- |
| CCOC(=O)NC(=O)c1cn(CCCCCOC(=O)NCCCCCCNC(=O)OCCCCCn2cc(C(=O)NC(=O)OCC)c(=O)[nH]c2=O)c(=O)[nH]c1=O | > 100 µM | > 100 µM | > 100 µM | > 100 µM | > 100 µM | > 100 µM | > 100 µM | – | – | – | – | – | – | – | – | – | – | – | – | – |
| CC1(C)CC[C@]2(C(=O)n3ccnc3)CC[C@]3(C)[C@H](C(=O)C=C4[C@@]5(C)C=C(C#N)C(=O)C(C)(C)[C@@H]5CC[C@]43C)[C@@H]2C1 | 0.0199 µM | 0.0204 µM | – | < 0.0188 µM | < 0.0499 µM | – | < 0.0336 µM | < 0.01 µM | < 0.01 µM | 0.0174 µM | < 0.01 µM | < 0.0111 µM | < 0.0178 µM | 0.0103 µM | 0.137 µM | 0.0446 µM | 0.395 µM | < 0.014 µM | – | – |
| O=C1NC2OCC(O)C(O1)C2O (centres undefined) | > 100 µM | > 100 µM | > 100 µM | > 100 µM | > 100 µM | > 100 µM | > 100 µM | – | – | – | – | – | – | – | > 100 µM | – | – | – | – | – |
| Cc1cc(Cl)ccc1NC(=O)/C(Cl)=C(/Cl)C(=O)O | 51.7 µM | 37.9 µM | > 100 µM | – | – | > 100 µM | 48.8 µM | – | – | 61.4 µM | – | – | – | – | 36.2 µM | – | 57.2 µM | – | – | – |
| O=C(Nc1ccc(Cl)c(Cl)c1)C(=O)C(C1OC(=O)c2ccccc21)[N+](=O)[O-] (centres undefined) | > 100 µM | > 100 µM | – | > 100 µM | > 100 µM | > 100 µM | > 100 µM | – | – | > 100 µM | – | – | – | – | > 100 µM | – | > 100 µM | – | – | – |
| CNc1nnnn1C1OC(CO)C(O)C1O (centres undefined) | > 100 µM | > 100 µM | – | > 100 µM | > 100 µM | – | > 100 µM | – | – | – | – | – | – | – | > 100 µM | – | – | – | – | – |
| O=C1CSC(=S)N1c1ccc(F)cc1F | > 100 µM | > 100 µM | – | > 100 µM | > 100 µM | > 100 µM | > 100 µM | – | – | > 100 µM | – | – | – | – | – | – | > 100 µM | – | – | – |
| O=C1OC(c2ccccc2)C2CC3CC4(CCC3CN12)OCCO4 (centres undefined) | > 100 µM | > 100 µM | > 100 µM | – | > 100 µM | > 100 µM | > 100 µM | – | – | – | – | – | – | – | > 100 µM | – | – | – | – | – |
| O=C(CC1(O)C(=O)Nc2c(Cl)cccc21)c1ccccc1 (centres undefined) | > 100 µM | > 100 µM | > 100 µM | > 100 µM | > 100 µM | > 100 µM | – | – | – | – | – | – | – | – | > 100 µM | – | – | – | – | – |
| O=C1C(c2ccc([N+](=O)[O-])cc2)=[N+]([O-])c2ccccc21 | > 100 µM | 54.4 µM | 71.9 µM | > 100 µM | > 100 µM | – | 40.5 µM | – | – | – | – | – | – | – | 47.5 µM | – | – | – | – | – |
| C=CCCC(O)c1ccc(C(O)CCCCCCCCCCCC)o1 (centres undefined) | 31.5 µM | 31.6 µM | – | – | 43.9 µM | > 100 µM | 32.8 µM | 17.6 µM | 22.6 µM | 46.9 µM | 16.2 µM | – | 21.7 µM | 21.5 µM | 41.4 µM | 34.3 µM | > 100 µM | 17.3 µM | 51.6 µM | – |
| Cc1cc2c(cc1C)N1Cc3c(ccc(C)c3C)N(C2)C1 (tested in a mixture with another compound) | > 100 µM | – | > 100 µM | – | > 100 µM | > 100 µM | > 100 µM | – | – | – | – | – | – | – | – | – | – | – | – | – |
| COc1ccc(C(=O)C(c2ccc(OC)cc2)C2C(=O)Oc3ccccc32)cc1 (centres undefined) | > 100 µM | > 100 µM | – | > 100 µM | > 100 µM | – | > 100 µM | > 100 µM | – | – | > 100 µM | > 100 µM | > 100 µM | > 100 µM | > 100 µM | – | – | > 100 µM | – | – |
| O=S(=O)(O)c1ccc(Cl)cc1.[Cd] | 50.2 µM | > 100 µM | > 100 µM | – | > 100 µM | > 100 µM | 28 µM | 22.5 µM | 67.3 µM | > 100 µM | > 100 µM | – | > 100 µM | > 100 µM | > 100 µM | 27 µM | 53.8 µM | 13.8 µM | > 100 µM | 51.7 µM |
| N#Cc1ccc(/C=N\N2C(=O)c3ccccc3C2=O)cc1 | > 100 µM | > 100 µM | > 100 µM | > 100 µM | > 100 µM | > 100 µM | > 100 µM | – | – | – | – | – | – | – | > 100 µM | – | – | – | – | – |
| O=C(CCCCC(=O)N/N=C\c1ccccc1Cl)N/N=C\c1ccccc1Cl | 74.9 µM | > 100 µM | – | > 100 µM | > 100 µM | 39.6 µM | > 100 µM | 14.7 µM | 8.33 µM | > 100 µM | 3.08 µM | 9.26 µM | 15.4 µM | > 100 µM | > 100 µM | 3.36 µM | > 100 µM | 3.98 µM | 11.3 µM | – |
| CN(C)CCCNC(=O)c1cc(NC(=O)CCNC(=O)c2ccc3c(c2)C(=O)c2ccccc2C3=O)cn1C | > 100 µM | – | > 100 µM | – | > 100 µM | > 100 µM | > 100 µM | > 100 µM | – | – | – | – | > 100 µM | > 100 µM | > 100 µM | 32.5 µM | 75.3 µM | > 100 µM | > 100 µM | > 100 µM |
| O=c1oc2c3ccc4ccccc4c3n(CCN3CCOCC3)c2c2ccccc12 | > 100 µM | – | > 100 µM | > 100 µM | – | > 100 µM | > 100 µM | – | – | – | – | – | – | – | – | – | – | – | – | – |
| CCCCCCCCCCCCOC1C(CNC(=O)C2OC3OC(C)(C)OC3C2NC(=O)CN2CCN(c3ccccn3)CC2)OC2OC(C)(C)OC21 (centres undefined) | 3.22 µM | 3.31 µM | – | 3.86 µM | 3.72 µM | 7.99 µM | 3.05 µM | 1.79 µM | 1.68 µM | 3.04 µM | 1.76 µM | 1.88 µM | 1.82 µM | 4.11 µM | 8.35 µM | 2.81 µM | 8.61 µM | 1.61 µM | 2.96 µM | – |
| O=c1cc2n(c(=O)[nH]1)C1OC(C(O)C1O)[C@H]2CCO (some centres undefined) | > 100 µM | – | > 100 µM | > 100 µM | > 100 µM | > 100 µM | > 100 µM | – | – | – | – | – | – | – | > 100 µM | – | – | – | – | – |
